Legend:
ACAT of macrophage = test: In-vivo test using mouse peritoneal macrophages (ACAT inhibition); conditions: male mice, compound in diet for 16 days
Description: (3) In-vivo Test Using Mouse Peritoneal Macrophages
Male mice were fed a standard powder diet containing the test compounds for 16 days. After 14 and 15 days on this diet, aggregated-LDL (containing 4 mg cholesterol) prepared from LDL receptor deficient KHC rabbit and [^14 C] oleic acid together with the said aggregated-LDL (containing 0.5 mg cholesterol) were injected into the peritoneal cavity of these animals, respectively. After 16 days on this treatment, peritoneal macrophages were harvested by peritoneal lavage with PBS solution and CHCl3 -MeOH (2:1) were added to the cell suspension in order to extract lipids. Formed [^14 C] cholesterol oleate was separated by thin-layer chromatography and the radioactivity was counted.
ACAT inhibitory activities of the test compounds were shown as inhibiting percentage referred to control group.

[1] = Acute toxicity, male ICR strain mouse; assay type: in vivo; conditions: 1000 mg/kg orally, seven days after administration
Description: (1) Acute toxicity: Nine compounds (Example Nos. 1, 2, 5, 6, 12, 19, 28, 31 and 45) were tested by using male ICR strain mouse weighing 23.0±0.7 g.

ACAT of macrophages = test: In vivo test using peritoneal macrophages in C57BL/6J mice (ACAT inhibition); design: species or system mouse; conditions: female C57BL/6J mice, 30 mg/kg/day per os for 4 days
Description: (6) In Vivo Test Using Peritoneal Macrophages in C57BL/6J Mice
A standard pellet diet fed female C57BL/6J mice were administered at 10 a.m. per os 30 mg/kg/day of oral suspension (1% CMC-Na 0.2% Tween 80) for 4 days. Thioglycollate and [^14 C] cholesterol were injected […], mice were sacrificed for the collection of peritoneal macrophages. Lipid was extracted, formed [^14 C] cholesterol-ester was separated by thin-layer chromatography and radioactivity was counted as described above in method (3).
In vivo ACAT inhibitory activities on macrophages were expressed as percentage of inhibition compared to control group.

ACAT of HepG2 microsome = test: In-vitro test using Hep G2 microsome (ACAT inhibition); assay type: biochemical, human
Description: (1) In-vitro Test Using Hep G2 Microsome
ACAT enzyme fraction was prepared from microsome of human derived hepatoma Hep G2 cell according to Sandra's method [Journal of Lipid Research, 27, 875 (1986)].
Microsome was suspended at a concentration of 200 μg protein/20 μl in 0.1M phosphate buffer solution (pH7.4) and the suspension was preincubated at 37° C. for 5 minutes after addition of 10 μl of each test compound dissolved in 0.1M phosphate buffer solution containing bovine serum albmin (BSA). Then, the reaction was initiated by the addition of 5 nmoles of labeled [^14 C]-oleoyl-CoA dissolved in 20 μl of the said phosphate buffer solution containing BSA and the reaction was stopped by the addition of 20 μl of 2N HCl after 10 minutes. [^14 C] cholesterol-oleate formed was separated by thin-layer chromatography and the radioactivity was counted with liquid scintillation counter.
(§1) ACAT inhibitory activities of the test compounds were shown as IC50 values.

ACAT of THP-1 cells = target: T1, ACAT of THP-1 cells (Homo sapiens, UniProt P35610); test: In-vitro test using THP-1 intact cell (ACAT inhibition); assay type: cell-based; conditions: read-out: IC50 THP1 (intact cell)
T1 construct: differentiated into macrophage-like cells by phorbol ester; endogenous in cells; host or cells: THP-1 (human leukemia), intact cells differentiated by phorbol ester
T1 sequence (P35610 1-550): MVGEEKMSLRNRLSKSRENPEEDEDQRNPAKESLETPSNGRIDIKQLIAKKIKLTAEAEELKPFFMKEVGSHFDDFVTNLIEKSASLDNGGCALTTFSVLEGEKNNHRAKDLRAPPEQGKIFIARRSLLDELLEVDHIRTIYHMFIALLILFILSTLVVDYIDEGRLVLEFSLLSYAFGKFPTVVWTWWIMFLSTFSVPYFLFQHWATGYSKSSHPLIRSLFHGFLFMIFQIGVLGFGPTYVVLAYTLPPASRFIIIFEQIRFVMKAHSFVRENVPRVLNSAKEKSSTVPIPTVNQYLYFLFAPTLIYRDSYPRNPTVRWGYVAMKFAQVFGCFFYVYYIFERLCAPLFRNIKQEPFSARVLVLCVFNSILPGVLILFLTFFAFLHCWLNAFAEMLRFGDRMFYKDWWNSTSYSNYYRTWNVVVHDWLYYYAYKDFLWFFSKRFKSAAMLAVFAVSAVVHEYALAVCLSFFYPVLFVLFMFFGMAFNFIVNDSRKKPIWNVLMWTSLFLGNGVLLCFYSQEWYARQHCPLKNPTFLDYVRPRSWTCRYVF
Description: (2) In-vitro Test Using THP-1 Intact Cell
About 2 million cells of human leukemia cell line, THP-1 were seeded in a well with 2 ml of medium and differentiated into macrophage-like cells by phorbol ester. Then, the cells were washed with phosphate-buffered saline (PBS) solution and the medium was replaced by fresh medium supplemented with 10% of lipoprotein-deficient serum. After the addition of each test compound dissolved in dimethyl sulfoxide and 100 μg protein-containing human low density lipoprotein (LDL), the reaction was initiated by the addition of 10 nmoles of labeled [^14 C]oleic acid and 10 nmoles of oleic acid complexed with BSA in PBS solution. After 22 hours, the reaction was stopped by removal the medium and CHCl3 -MeOH (2:1) were added to the cell suspension in order to extract lipids.
Intracellular [^14 C] cholesterol-oleate formed was separated by thin-layer chromatography and the radioactivity was counted with lipid scintillation counter.
as §1

THP-1 microsomal ACAT [2] = target: T2, THP-1 microsomal ACAT (Homo sapiens, UniProt P35610); test: Bioavailability assessment of ACAT inhibitors by their ex vivo activity (serum of dosed mice on THP-1 microsomal ACAT); assay type: in vivo; conditions: female mice, 30 mg/kg per os, 1% CMC-Na 0.2% Tween 80; maximum inhibition by serum
T2 construct: ACAT enzyme fraction was prepared from microsome of human leukemia THP-1 cell; endogenous in cells; host or cells: THP-1 (human leukemia), microsomes
T2 sequence (P35610 1-550): T1 sequence (P35610 1-550)
Description: (5) Bioavailability Assessment of ACAT Inhibitors by Their <<ex vivo>> Activity
[…] Blood samples were collected 0.5, 1, 1.5, 2, 6 hour postdose. Serum were harvested after gentle centrifugation and stored at -20.
The following day, 10 μl serum were preincubated at 37 for 5 minutes with 20 μl of THP-1 microsomal ACAT and then incubated 10 minutes with 20 μl of radiolabeled oleoyl-CoA as described above in method (4). The serum is used instead of the drug solution.
ACAT inhibitory activities of the test compounds were shown as maximum inhibition percentages (Imax).

THP-1 microsomal ACAT [3] = target: T2, THP-1 microsomal ACAT; test: In vitro test using THP-1 microsome (ACAT inhibition); assay type: biochemical; conditions: THP-1 microsome; read-out: IC50 THP1 microsome
Description: (4) In Vitro Test Using THP-1 Microsome
Then, the reaction was initiated by the addition of 5 nmoles of labeled [^14 C] oleoyl-CoA dissolved in 20 μl of said phosphate buffer solution containing BSA and the reaction was stopped by the addition of 20 μl of 2N HCl after 10 minutes. [^14 C] cholesterol-oleate formed was separated by thin-layer chromatography and the radioactivity was counted with liquid scintillation counter.

Compound	Inhibition rate (macrophages) (ACAT of macrophage) [%]	macroscopic changes on any organs at autopsy [1]	Inhibition rate (macrophages) (ACAT of macrophages; Experiment 1) [%]	IC50 (ACAT of HepG2 microsome) [nM]	IC50 (ACAT of THP-1 cells) [nM]	Imax Ex vivo (THP-1 microsomal ACAT [2]) [%]	IC50 (THP-1 microsomal ACAT [3]) [nM]	Inhibition rate (macrophages) (ACAT of macrophages; Experiment 2) [%]
CCCCCCCNC(=O)Nc1ccc(N(C)C)cc1C(=O)NCC1CCN(C(c2ccccc2)c2ccccc2)CC1 [Example 1, 2-(N'-n-Heptylureido)-5-dimethylamino-N-[(1-diphenylmethylpiperidin-4-yl)methyl]-benzamide]	65	no macroscopic changes were observed	81.0	600	70	–	–	–
CCCCCCCNC(=O)Nc1ccccc1C(=O)NCC1CCN(C(c2ccccc2)c2ccccc2)CC1 [Example 5, 2-(N'-n-Heptylureido)-N-[(1-diphenylmethylpiperidin-4-yl)methyl]benzamide]	64	no macroscopic changes were observed	–	1600	70	–	–	–
CCCCNC(=O)Nc1ccc(N(C)C)cc1C(=O)NCC1CCN(C(c2ccccc2)c2ccccc2)CC1 [Example 63, 2-(N'-n-Butylureido)-5-dimethylamino-N-[(1-diphenylmethylpiperidin-4-yl)-methyl]-benzamide]	–	–	72.3	–	–	68.52	50	61.0
CCCNC(=O)Nc1ccc(N(C)C)cc1C(=O)NCC1CCN(C(c2ccccc2)c2ccccc2)CC1 [Example 66, 5-Dimethylamino-2-(N'-n-propylureido)-N-[(1-diphenylmethylpiperidin-4-yl)methyl]-benzamide]	–	–	73.5	–	–	77.59	80	–
CCCCNC(=O)Nc1ccc(N2CCOCC2)cc1C(=O)NCC1CCN(C(c2ccccc2)c2ccccc2)CC1 [Example 70, 2-(N'-n-Butylureido)-5-(morpholin-4-yl)-N-[(1-diphenylmethylpiperidin-4-yl)methyl]-benzamide]	–	–	–	–	–	–	60	73.0
CCCNC(=O)Nc1ccc(N2CCOCC2)cc1C(=O)NCC1CCN(C(c2ccccc2)c2ccccc2)CC1 [Example 71, 5-(Morpholin-4-yl)-2-(N'-n-propylureido)-N-[(1-diphenylmethylpiperidin-4-yl)methyl]-benzamide]	–	–	–	–	–	81.1	90	73.5

Reference: US5872115A, “2-ureido-benzamide derivatives” (Grelan Pharmaceutical Co. Ltd., priority 1995, dated 1999)
